According to patent US9187454B2, “Inhibitors of kinases and cancer stem cells, and methods of preparation and use thereof” (Boston Biomedical, Inc., priority 2013, dated 2015):
pIC50: −log10 of the molar value.

Key:
Format in all cases: cell-based
[1] = test system: FaDu; experiment: Bulk cancer cell viability, CellTiter-Glo, FaDu; settings: viability 72 hours after drug treatment
Experimental: (§1) Cancer cells were plated at 5000 cells per well in black-walled 96 well plates in 100 uL per well of complete media (DMEM, 10% FBS, 1% penicillin/streptomycin). Cells were treated with each of the compounds 24 hours after plating with a dose curve of the indicated compounds in triplicate wells. Cells were harvested 72 hours after drug treatment and viability was determined using CellTiter-Glo assay (Promega) as directed by the manufacturer.

[2] = test system: FaDu CSC; experiment: Cancer stem cell sphere culture viability, CellTiter-Glo, FaDu CSC; settings: CSC cultures, viability 72 hours after drug treatment
Experimental: (§2) Cancer Stem Cell (CSC) cultures were initiated from heterogenous cancer cell lines. Briefly, cancer cell cultures were trypsonized and collected in centrifuge tubes. Cells were then pelleted by centrifugation, media removed, and cells resuspended in phosphate buffered saline (PBS). Cells were then pelleted again, and the process repeated for a total of three PBS washes. Cells were subsequently resuspended in CSC media (DMEMF-12, 1×B27 supplement (Life Technologies), 0.4% BSA, 10 ng/ml EGF, 10 ng/ml FGF). Following resuspension, cells were passed through a 40 uM cell strainer to obtain a single cell suspension. Cells were then plated in 100 mm dishes coated with 0.5% Agar to prevent cell attachment. Cells were then allowed to grow for 5-7 days to allow CSC sphere formation.
(§3) CSC spheres that were a minimum of passage 2 were dissociated with Accutase and filtered through a 40 uM cell strainer before counting to remove any cell clumps. CSCs were then plated at 1000 cells per well in black-walled 96 well plates that have been coated in 0.5% Agar in 100 uL per well of CSC media. CSCs were then allowed to grow for 72 hours. CSC cultures were then treated with a dose curve of the indicated compounds in triplicate wells. CSC cultures were harvested 72 hours after drug treatment and viability determined using CellTiter-Glo assay (Promega) as directed by the manufacturer.

[3] = test system: A549; experiment: Bulk cancer cell viability, CellTiter-Glo, A549; settings: Homo sapiens, viability 72 hours after drug treatment
Experimental: as §1

[4] = test system: ACHN; experiment: Bulk cancer cell viability, CellTiter-Glo, ACHN; settings: viability 72 hours after drug treatment
Experimental: as §1

[5] = test system: A549 CSC; experiment: Cancer stem cell sphere culture viability, CellTiter-Glo, A549 CSC; settings: Homo sapiens, CSC cultures, viability 72 hours after drug treatment
Experimental: as §2, §3

SMILES | pIC50 ([1]; Homo sapiens, FaDu, 72 h) | pIC50 ([2]; Homo sapiens, FaDu, 72 h) | also measured
Cc1[nH]c(/C=C2\C(=O)Nc3cc(-c4csc(-c5ccccc5)n4)ccc32)c(C)c1C(=O)N1CCOCC1 [Compound 268] | 4.19 |  | 
CN1CCN(C(=O)c2ccc(/C=C3\C(=O)Nc4ccc(-c5csc(-c6ccccc6)n5)cc43)[nH]c2=O)CC1 [Compound 264] | 4.00 |  | 
CCN(CC)CCNC(=O)c1c(C)[nH]c(/C=C2\C(=O)Nc3ccc(-c4cn(-c5ccccc5)nc4C)cc32)c1C [Compound 287] |  |  | pIC50 [2]: 5.88; pIC50 [1]: 5.24
CCN(CC)CCNC(=O)c1c(C)[nH]c(/C=C2\C(=O)Nc3cc(-c4csc(-c5ccccc5)n4)ccc32)c1C [Compound 233] | 5.30 | 6.18 | 
CCN(CC)CCNC(=O)c1c(C)[nH]c(/C=C2\C(=O)Nc3cc(-c4ccc(-c5ccccc5)s4)ccc32)c1C [Compound 244] | 4.06 |  | 
CCN(CC)CCNC(=O)c1c(C)[nH]c(/C=C2\C(=O)Nc3ccc(-c4csc(-c5ccccc5)n4)nc32)c1C [Compound 261] | 5.82 | 6.19 | pIC50 [3]: 5.95; pIC50 ([4]; Homo sapiens, ACHN, 72 h): 5.76
CCN(CC)CCNC(=O)c1c(C)[nH]c(/C=C2\C(=O)Nc3ccc(-c4nnc(-c5ccccc5)s4)cc32)c1C [Compound 250] | 4.85 |  | pIC50 [4]: 4.08
Cc1[nH]c(/C=C2\C(=O)Nc3cc(-c4csc(-c5ccccc5)n4)ccc32)c(C)c1C(=O)N1CCN(C)CC1 [Compound 234] | 5.20 |  | 
O=C1Nc2ccc(-c3csc(-c4ccccc4)n3)cc2/C1=C/c1ccc(C(=O)NCCN2CCOCC2)c(=O)[nH]1 [Compound 265] | 4.20 |  | 
CCN(CC)CCNC(=O)c1ccc(/C=C2\C(=O)Nc3ccc(-c4csc(-c5ccccc5)n4)cc32)[nH]c1=O [Compound 263] | 5.62 | 5.09 | 
CCN(CC)CCNC(=O)c1c(C)[nH]c(/C=C2\C(=O)Nc3c2cccc3-c2csc(-c3ccccc3)n2)c1C [Compound 235] | 5.28 | 5.85 | 
Cc1[nH]c(/C=C2\C(=O)Nc3c2cccc3-c2csc(-c3ccccc3)n2)c(C)c1C(=O)N1CCN(C)CC1 [Compound 236] | 4.95 | 5.60 | 
CCN(CC)CCNC(=O)c1c(C)[nH]c(/C=C2\C(=O)Nc3ccc(-c4cnn(C5CCOCC5)c4)cc32)c1C [Compound 273] | 5.21 | 5.04 | pIC50 [3]: 4.56
CCN(CC)CCNC(=O)c1c(C)[nH]c(/C=C2\C(=O)Nc3ccc(-c4nnc(-c5ccccc5)s4)cc32)c1C [Compound 303] |  |  | pIC50 [2]: 4.90; pIC50 [1]: 5.10; pIC50 [4]: 5.25
CCN(CC)CCNC(=O)c1c(C)[nH]c(/C=C2\C(=O)Nc3ccc(C4CCN(C5CCN(C(C)=O)CC5)CC4)cc32)c1C [Compound 272] | 4.65 |  | 
Cc1[nH]c(/C=C2\C(=O)Nc3ccc(-c4csc(-c5ccccc5)n4)nc32)c(C)c1C(=O)NCCN1CCCC1 [Compound 262] | 5.44 | 5.96 | pIC50 [5]: 5.70; pIC50 [3]: 5.50; pIC50 ([4]; Homo sapiens, ACHN, 72 h): 5.55
CCN(CC)CCNC(=O)c1c(C)[nH]c(/C=C2\C(=O)Nc3ccc(-c4ncc(-c5ccccc5)o4)cc32)c1C [Compound 247] |  |  | pIC50 ([4]; Homo sapiens, ACHN, 72 h): 4.20

Second part, led by results:

pIC50 ([1]; Homo sapiens, FaDu, 72 h) | pIC50 ([2]; Homo sapiens, FaDu, 72 h) | SMILES | also measured
4.19 |  | Cc1[nH]c(/C=C2\C(=O)Nc3ccc(-c4csc(-c5ccncc5)n4)cc32)c(C)c1CCC(=O)O [Compound 348] | 
4.17 |  | O=C1Nc2ccc(-c3csc(-c4ccncc4)n3)cc2/C1=C/c1cc2ccccc2[nH]1 [Compound 352] | 
4.25 |  | Cc1cc(C(=O)NCCO)[nH]c1/C=C1\C(=O)Nc2ccc(-c3csc(-c4ccccc4)n3)cc21 [Compound 370] | 
5.27 | 5.66 | CCN(CC)CCNC(=O)c1c(C)[nH]c(/C=C2\C(=O)Nc3ccc(C4=CS/C(=C\c5ccccc5)N4C)cc32)c1C [Compound 283] | 
4.84 | 4.39 | CCN(CC)CCNC(=O)c1c(C)[nH]c(/C=C2\C(=O)Nc3ccc(-c4ccc(-c5cccnc5)s4)cc32)c1C [Compound 298] | 
